From patent US9845327B2, “Treatment of proteinopathies” (THE GENERAL HOSPITAL CORPORATION, priority 2011, dated 2017) come the findings set out here.

Assay [1] deals with T1, recombinant human α-synuclein (Homo sapiens, UniProt P37840).
T1 construct: made in house; host or cells: E. coli BL21 CodonPlus (DE3)-RIL
In words: In vitro soluble α-synuclein oligomers and sedimentation with lipids (SEC/SDS-PAGE, ANS, 100,000 x g centrifugation). The text has this: Therefore, in this Example it was hypothesized that the delay in fibril formation observed in vitro resulted from a kinetic stabilization of a soluble oligomeric intermediate species. To test this, the nature of the species that form during the lag phase (between 1 and 16 hr) of PC25/GlcCer75-containing reactions were characterized by analytic biochemical methods. Soluble portions of the reaction mixtures were obtained by centrifugation at 100,000×g and analyzed at 1 and 5 hr after the addition of lipids by SEC/SDS-PAGE. […] Further, detected were increased amounts of soluble SDS and heat-stable dimers (36 kDa), trimers (54 kDa), and higher oligomeric species eluting as 36-27 Å-sized particles in PC25/GlcCer75-containing reactions compared to controls (FIG. 7B). […] Syn505 also detected α-synuclein directly on GlcCer tubular structures (FIG. 7G, i and ii) but not on GlcCer-alone reactions (FIG. 7I), indicating an association of misfolded α-synuclein with GlcCer. α-synuclein-GlcCer reactions were further analyzed by 8-anilino-1-napthalene sulfonate (ANS) binding, a fluorescent dye used to detect aggregation-prone conformational intermediates (Stryer, 1965). […]
Oligomers were also detected by 8-anilino-1-napthalene sulfonate (ANS) (Acros #401220050). […]

Another assay has as its target T2, GCase polypeptide (Homo sapiens, UniProt P04062).
T2 construct: endogenous in cells; host or cells: human iPS-derived midbrain dopamine neurons (healthy control; PD patient with SNCA triplication, Coriell ND27760)
T2 sequence (P04062 40-536): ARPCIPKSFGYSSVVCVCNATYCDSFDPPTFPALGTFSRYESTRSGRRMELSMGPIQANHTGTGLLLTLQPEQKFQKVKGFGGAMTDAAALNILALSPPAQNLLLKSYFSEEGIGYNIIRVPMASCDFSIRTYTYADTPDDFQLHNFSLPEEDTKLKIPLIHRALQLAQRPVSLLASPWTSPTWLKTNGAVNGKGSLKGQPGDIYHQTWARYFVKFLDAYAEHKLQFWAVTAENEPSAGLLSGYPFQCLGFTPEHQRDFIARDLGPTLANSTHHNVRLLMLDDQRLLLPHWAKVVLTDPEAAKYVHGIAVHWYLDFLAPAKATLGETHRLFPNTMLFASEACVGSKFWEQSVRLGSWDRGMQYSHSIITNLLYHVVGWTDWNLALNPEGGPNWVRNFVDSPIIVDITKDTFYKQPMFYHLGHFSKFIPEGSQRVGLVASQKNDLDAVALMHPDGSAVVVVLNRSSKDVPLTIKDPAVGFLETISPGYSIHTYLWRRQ
Briefly: GCase polypeptide levels and post-ER forms by western blot in human iPS dopamine neurons. The assay is classed as cell-based. The settings on record: human midbrain iPS dopamine neurons. How it is done:
In this Example, human dopamine neurons generated from iPS cells of an unaffected control were treated with a pharmacological chaperone activator of GCase polypeptide, isofagomine (IFG). […] Treatment of wild-type neurons with 100 μM IFG for 5 days followed by 1 day wash-out increased the levels of GCase polypeptide (FIGS. 15A and 15B). This increase was likely due to the fact that wild-type GCase polypeptide was occasionally misfolded in the ER and degraded (about 30% of the total made in the ER), and IFG appeared to also stabilize the wild-type misfolded forms.
(§1) It was also shown in this Example that treatment with the GCase polypeptide activator increased the levels of total GCase protein and increased the post-ER forms, indicating enhancement of flux to the lysosome (FIG. 19B).
In this Example, the effect of combining the GCase polypeptide pharmacological chaperone IFG with the antioxidant n-acetyl-cysteine (NAC) on GCase polypeptide maturation in PD iPS neurons was tested. Neurons were treated with either IFG, NAC, or IFG and NAC together, and GCase polypeptide maturation was analyzed by western blot.
(§2) Most materials for SDS-PAGE were obtained from Invitrogen (NuPAGE system). Protein lysates were boiled in sample buffer (20 mM Tris, 1% (v/v) glycerol, 180 mM β-mercaptoethanol, 0.003% (w/v) bromophenol blue, 2% (w/v) SDS, pH 6.8), resolved on 4%-12% Bis-Tris polyacrylamide precast gels in a MOPS-SDS running buffer, or 4%-12% Tris-Glycine gels. 10% Tris-Glycine gels were utilized for some GCase polypeptide western blot's (FIGS. 13B, 13D, and 13E, and FIGS. 14C and 14F). […] Blots were blocked in Odyssey blocking buffer (Li-Cor biosciences) containing 0.05% Tween, or 5% non-fat dry milk in TBS-T 0.2%, followed by incubation with primary antibodies (see above for dilutions), and detected with anti-mouse or -rabbit IgG conjugated to IRDye 680 or 800 (1:10,000, Li-Cor biosciences). […] Any nonspecific bands detected were not included in densitometric analyses. […]
(In western blotting, separated proteins are transferred to a membrane and probed.)

The test system of another assay is α-synuclein. In words: α-synuclein levels by western blot in human midbrain iPS dopamine neurons. It is filed as cell-based.
Text: In this Example, it was investigated whether enhancement of lysosomal enzyme trafficking through stimulation of the secretory pathway would result in increased lysosomal function and reduction of α-synuclein. Therefore, in this Example the small GTPase Rab1a polypeptide was overexpressed by lentiviral infection in iPS neurons to stimulate enzyme trafficking. Rab1a polypeptide has been established to function specifically at the ER-Golgi step of the secretory pathway (Duvernay et al., Cell Signal 17: 1457, 2005). The effect of Rab1a polypeptide was determined in human iPS dopamine neurons derived from reprogrammed fibroblasts of a PD patient (Coriell line ND27760). These cells harbor a triplication mutation in the genomic region containing SNCA which encodes for α-synuclein, leading to overexpression of the protein and lysosomal trafficking deficits. […] Further in this Example, it was determined if Rab1a polypeptide enhances lysosomal function by monitoring cathepsin B activity.
as §1, §2

The test system of another assay is Hela cells. In words: Lysosomal proteolysis by radioactive pulse-chase in transfected Hela cells. It is filed as cell-based. The method, then: Further in this Example, it was assessed whether GCase polypeptide overexpression had the ability to directly enhance lysosomal proteolysis in a non-neuronal cell line. Hela cells were transfected with a myc-tagged GCase polypeptide expression construct and lysosomal proteolysis was assessed by radioactive pulse-chase (FIG. 17A). […] This effect was also confirmed through a different assay, by measuring the effect of GCase polypeptide overexpression on the activity of the lysosomal protease cathepsin B. A cell-permeable fluorescent-tagged cathepsin B substrate (MAGIC RED cathepsin detection kit, Immunochemistry Technologies) was added to transfected Hela cells, and degradation of this substrate was determined in living cells after substrate wash-out.

For another assay, the system named is primary cortical neurons. In words: Proteolysis of long-lived proteins by radioactive pulse-chase in primary cortical neurons. The conditions noted are these: added to GCase polypeptide KD. The assay is classed as cell-based, mouse. The method, then: In this Example, a test was conducted to determine whether GCase polypeptide KD affects a lysosomal degradation pathway. In this test, neurons were treated with the well-established lysosomal inhibitors ammonium chloride (NH4Cl) and leupeptin.
Proteolysis of long-lived proteins was determined by radioactive pulse-chase using ^3H-leucine. This procedure was performed as described previously (Kaushik et al. Methods Enzymol. 452: 297, 2009). Briefly, cortical cells were grown in 24 well clusters seeded at 33000 cells/well and infected at moi 3 with scrb or GCase polypeptide shRNA expressing lentiviral vectors. On dpi 4, ^3H-leucine (PerkinElmer, # NET460A001 MC, final 5 μCi/ml) was added in standard neurobasal medium containing B27 for 2 days to trace label proteins. […] Samples were centrifuged at 20,000×g for 20 min, 4° C., and the radioactivity was measured in 5 ml of scintillation cocktail using a Beckman LS 1701 liquid scintillation counter (Beckman Instruments). Precipitated protein pellets were extracted in 200 μl of Na deoxycholate, 0.1 M NaOH, and radioactivity was determined. Percent proteolysis was calculated as described in detail elsewhere (Kaushik et al. Methods Enzymol. 452: 297, 2009). […]

For assay [2], the target named is T1, recombinant human α-synuclein. In words: In vitro α-synuclein fibril (amyloid) formation with lipid dispersions, thioflavin T fluorescence. How it is done:
In this Example, lipid dispersions made of mixtures of purified GlcCer and brain phosphatidylcholines (PCs) were incubated with α-synuclein at physiological conditions (pH 7.4, 37° C.). Electron microscopy (EM) analysis indicated the formation of tubules consisting of polymerized GlcCer (FIGS. 7G-7I), similar to those previously observed in Gaucher cells in patients and mouse models (Lee, PNAS 61: 484, 1968).
However, increasing the amount of GlcCer to 75% while keeping the total lipid amount constant (PC25/GlcCer75) altered the kinetic profile of α-synuclein fibril formation by delaying the formation of insoluble thioT-positive α-synuclein fibrils, extending the lag time from 2 to 16 hr (FIG. 7A).
The fibril assembly phase PC25/GlcCer75-containing reactions occurred between 16 and 24 hr, compared to control reactions where the assembly occurred between 2 and 24 hr. […] The aggregated species formed at the end stage of the fibril-forming reaction, after assembly was completed and equilibrium was reached (at 28 hr) were further analyzed. […]
α-synuclein was expressed in E. coli and purified by boiling followed by HPLC as described previously (Mazzulli et al 2007). […] Fluorescence (ex=430 nm, em=510, 0.1 s) was determined in a Wallac Victor^2 plate reader (Perkin Elmer) in black FluorNunc Maxisorp 96 well plates (Nunc, #475515). […]

For the compound “monosialotetrahexosylganglioside [ganglioside GM1]”, the “soluble α-synuclein oligomers compared to α-synuclein alone” value in assay [1] (pH 5.0, 15 hr incubation, 10:1 lipid:protein ratio) was “dramatic stabilization and elevation”.
In the case of `C#Cc1ccc(NC(=O)c2cnn3c(C)cc(C)nc23)cc1` [NCGC00188758], on GCase polypeptide, the “levels of total GCase protein” value was “increased” and the “post-ER forms of GCase” value is recorded as “increased”. In the assay with α-synuclein (neurons from a PD patient with triplication of the SNCA genomic region), the α-synuclein protein levels result was “dose-dependent decrease”. In addition, in the assay with α-synuclein (neurons from healthy unaffected controls), the α-synuclein protein levels result is “dose-dependent decrease”.
On to `Cl.N` [ammonium chloride], for which the “effect of lysosomal inhibitors on the proteolysis increase by GCase polypeptide overexpression” value with Hela cells is given as “completely reversed”. The “proteolysis of long-lived proteins in GCase polypeptide shRNA-treated cells” value with primary cortical neurons is “did not additively inhibit”.
Glucosyl (β) Ceramide [GlcCer]: the “maximal thioT signal at the end stages, fold higher compared to control reactions” value in assay [2] (pH 5.0) was 2- to 3 fold. The α-synuclein fibril formation entry in assay [2] (physiological conditions, pH 7.4, 37° C.) is recorded as “no effect”. Further, the “amount of pelletable α-synuclein protein (100,000×g sedimentation)” value in assay [1] (pH 5.0, 28 hr) was “no effect”.
